# Reference: PMC9706657 (2022)
# Legend:
# Assay in all cases: ITC
# Conditions in all cases: Na+ 100 mM (NaCl), Mg2+ 5 mM (MgCl2); 5 mM MES, pH 5.5; aptamer on Au nanoparticle (20 µM aptananozyme in cell)
# [1] = test system: aptananozyme IV ((4)-modified pA-AuNPs) (DNA, aptamer) GTAACAACAGTCAAAAAAAAAAAAAAAAAAAAGACTGTTGTTACTGTATGTACGACGCCAGTTTGAAGGTTCGTTCGCAGGTGTGGAGTGACGTCG
# [2] = test system: aptananozyme III ((3)-modified pA-AuNPs) (DNA, aptamer) GTAACAACAGTCAAAAAAAAAAAAAAAAAAAAGACTGTTGTTACTGTACGACGCCAGTTTGAAGGTTCGTTCGCAGGTGTGGAGTGACGTCG
# [3] = test system: aptananozyme I ((1)-modified pA-AuNPs) (DNA, aptamer) CGACGCCAGTTTGAAGGTTCGTTCGCAGGTGTGGAGTGACGTCGGTAACAACAGTCAAAAAAAAAAAAAAAAAAAAGACTGTTGTTAC
# [4] = test system: aptananozyme V ((5)-modified pA-AuNPs) (DNA, aptamer) GTAACAACAGTCAAAAAAAAAAAAAAAAAAAAGACTGTTGTTACTGTATGTATGTACGACGCCAGTTTGAAGGTTCGTTCGCAGGTGTGGAGTGACGTCG
# [5] = test system: aptananozyme II ((2)-modified pA-AuNPs) (DNA, aptamer) GTAACAACAGTCAAAAAAAAAAAAAAAAAAAAGACTGTTGTTACCGACGCCAGTTTGAAGGTTCGTTCGCAGGTGTGGAGTGACGTCG
Compound,Kd [1] [nM],Kd [2] [nM],Kd [3] [nM],Kd [4] [nM],Kd [5] [nM]
N[C@H](Cc1ccc(O)c(O)c1)C(=O)O,11300,,,,
NCCc1ccc(O)c(O)c1,760 ± 30,950 ± 40,1650 ± 30,930 ± 50,1200 ± 60
N[C@@H](Cc1ccc(O)c(O)c1)C(=O)O,4200,,,,
